According to patent US12686701B2, “Substitution of histidine with 2-thiohistidine in bioactive peptides” (University of Vermont and State Agricultural College, priority 2021, dated 2026):
“Also recorded” adds a separate entry of the source. *1 amine or outer side, *2 acyl side, *3 side chain or, on linkers, in order; H or OH if unused. Where a SMILES comes first, the peptide text is derived from it. [ ]: non-standard residue; d: D form. X1 = O=C([C@H](Cc1c[nH]c(=S)[nH]1)N[*:1])[*:2]

Key:
[1] = DPPH radical scavenging activity (UV-Vis, 517 nm); format: biochemical; details: for ability to scavenge DPPH radical (in words): absorbance peak at 517 nm; for DPPH Radical TEAC: Trolox equivalent antioxidant capacity, 50 μM DPPH, 15 min, pH 7.0, 60:40 ethanol:buffer, ND = activity too low to be determined, TEAC close to zero
Protocol: Measurement of 2,2-diphenyl-1-picrylhydrazyl (DPPH) radical scavenging activity. DPPH activity assays were conducted according to procedures known in the art. A 1 mM stock solution of DPPH was prepared by dissolving DPPH in 95% ethanol. Peptide stock solutions were prepared at a concentration of 5 mM in 100 mM potassium phosphate buffer, pH 7.0 for each of the His- and 2-thioHis-containing peptides. 6-hydroxy-2,5,7,8-tetramethylchromane-2-carboxylic acid (Trolox) was used as a standard for antioxidant activity and a positive control. A 5 mM solution of Trolox in 100 mM potassium phosphate, pH 7.0 was prepared. A blank was prepared by mixing 600 μL of 95% ethanol with 400 μL of 100 mM potassium phosphate, pH 7.0 in a cuvette. This solution was used to blank the spectrophotometer from 200-800 nm. In each sample, a 60:40 ratio of ethanol:buffer was maintained. To test the ability of Trolox and the different peptides to reduce DPPH, 50 μM DPPH was combined with different concentrations of peptide or Trolox ranging from 5 μM to 500 μM and the total volume of each sample was adjusted to 1 mL with buffer and ethanol. The samples were allowed to incubate at room temperature in the dark for 15 min, after which each sample was scanned and changes in the absorbance at 517 nm were monitored. Trials were run in triplicate for each of the peptides and Trolox. For every trial, one sample was prepared with only 50 μM DPPH (no peptide or Trolox) to serve as a control. The percentage of inhibition of DPPH oxidation was calculated using Equation 1:
(§1) [formula] where Acontrol is the absorbance of the control (DPPH and buffer only) and Asample is the absorbance at 517 nm of the test peptide/standard. A Trolox calibration curve was prepared with concentrations ranging from 5-50 μM (FIG. 13). Similar curves were prepared for each of the peptides (FIG. 13). These curves were used to calculate Trolox equivalent antioxidant capacity (TEAC) values for each of the peptides by calculating the ratio of peptide to Trolox to achieve the same percent reduction of DPPH.

[2] = ABTS radical scavenging activity (UV-Vis, 734 nm); format: biochemical; details: for ability to scavenge ABTS radical (in words): absorbance peak at 734 nm; for ABTS radical TEAC: Trolox equivalent antioxidant capacity, 10 min, PBS pH 7.2, average of three or more trials, ND = activity too low to be determined, TEAC close to zero
Protocol: Measurement of 2,2′-azino-di-[3-ethylbenzthiazoline sulfonate (6)] (ABTS) radical scavenging activity. ABTS scavenging assays were performed according to previously published protocols with some modifications. A 10 mM stock solution of potassium persulfate was prepared in deionized water. A stock solution of ABTS was prepared by dissolving 7 mM ABTS and 2.45 mM potassium persulfate in deionized water. This solution was allowed to incubate at room temperature in the dark for 12-16 h to allow potassium persulfate to oxidize the ABTS. Following oxidation, the solution was a dark blue/green color. This solution was stable in the dark at room temperature for at least 48 h. This solution was diluted with 100 mM phosphate buffered saline, pH 7.2 so that the final absorbance was 0.70±0.02 at 734 nm. Stock solutions for all peptides and for Trolox were prepared in a range from 0.1 mM to 3.2 mM in 100 mM phosphate buffered saline, pH 7.2. To test the ability of Trolox and peptides to reduce the ABTS radical cation, samples were prepared with 990 μL of the diluted ABTS solution and 10 μL of each of the peptide or Trolox stock solutions. For every trial, one sample was prepared with 990 μL ABTS and 10 μL of buffer. The samples were allowed to incubate at room temperature in the dark for 10 min. The spectrophotometer was blanked with 1 mL of 100 mM phosphate buffered saline, pH 7.2 from 200-800 nm. Scans were taken for each of the samples and the change in absorbance at 734 nm was monitored. Every sample was run in triplicate and the results were averaged. The percentage of inhibition of ABTS oxidation was calculated using Equation 2.
as §1, with “(ABTS” for “(DPPH”, “734” for “517”, “1-32” for “5-50”, “14).” for “13).”, “TEAC” for “Trolox equivalent antioxidant capacity (TEAC)”, “ABTS.” for “DPPH.”

[3] = Hydroxyl radical scavenging activity by room temperature EPR (Fenton reaction, DMPO spin trap); format: biochemical; details: for Hydroxyl Radical RSA (%): all analytes at 1 mM, potassium phosphate pH 7.4, average of three or more trials; for ability to scavenge ·OH (in words) / increase in ·OH scavenging ability on substituting 2-thioHis for His: 1 mM; for increase in ·OH scavenging ability on substituting 2-thioHis for His: difference of RSA versus His-containing counterpart
Protocol: Measurement of hydroxyl radical scavenging activity. Hydroxyl radical scavenging activity of peptides was measured with room temperature EPR spectroscopy according to known methods with some modifications. Hydroxyl radicals were generated by the iron-catalyzed Fenton Haber-Weiss reaction, and the generated hydroxyl radicals were reacted with the nitrone spin trap 5,5-dimethyl-1-pyrroline-N-oxide (DMPO). The resultant DMPO-OH adducts were detectable with EPR spectroscopy. The peptide (1 mM final concentration) was added to a solution containing: 24 mM DMPO, 0.8 mM FeSO4, and 0.8 mM H2O2 in 100 mM potassium phosphate buffer, pH 7.4 in a final reaction volume of 250 μL. This solution was immediately transferred into a 50 μL quartz capillary tube. After 5 min, the EPR spectrum was recorded using a Bruker X-band EPR spectrometer operating at 9.42 GHz. The experimental conditions employed were as follows: magnetic field, 336.5±10 mT; power, 2 mW; modulation amplitude, 2.00 G; time constant, 327.68 ms, modulation frequency, 100 kHz; receiver gain, 30 dB sweep time, 60 s. Trials were performed in triplicate for each peptide. The double integral of the EPR spectra was obtained and used to determine the signal intensity for each sample. The hydroxyl radical scavenging ability was calculated using Equation 3, in which H and H0 are relative peak height of radical signals with and without sample, respectively. [formula]

[4] = Low temperature (95 K) EPR of peptide-Cu(II) complexes; format: binding; details: from EPR spectra, not quantified
Protocol: Low temperature EPR studies. The ability of each peptide to bind Cu(II) was determined by low temperature (95 K) EPR spectroscopy using the methods known in the art with some modifications. Samples of 200 μM and 400 μM peptide were incubated for 10 min at room temperature with 200 μM CuCl2 in 100 mM potassium phosphate, pH 7.4. Following incubation, aliquots of each sample were transferred into 4 mm inner diameter quartz EPR tubes (Wilmad-LabGlass). The samples were frozen in liquid nitrogen and stored in liquid nitrogen prior to use. Control samples were prepared with only buffer and with 200 μM CuCl2 in potassium phosphate buffer. Low temperature EPR spectra were gathered with a Bruker EPR spectrometer operating at 9.42 GHz with the following parameters: scan range, 6000 G; field set, 3200 G; time constant, 164 ms; scan time, 60 s; modulation amplitude, 7.000 G; modulation frequency, 100 kHz; receiver gain, 30 dB; microwave power, 20 mW; and number of scans, 5.

Compound	ability to scavenge DPPH radical (in words) [1]	ability to scavenge ABTS radical (in words) [2]	Hydroxyl Radical RSA (%) [3] [%]	DPPH Radical TEAC [1]	ABTS radical TEAC [2]	ability to scavenge ·OH (in words) [3]	increase in ·OH scavenging ability on substituting 2-thioHis for His [3] [%]	affinity for / binding of Cu(II) (in words) [4]
H-GHK-OH [reference compound]	only a slight decrease in the DPPH absorbance peak at 517 nm	no decrease in the ABTS absorbance peak at 734 nm	65.4 ± 0.008	–	–	–	–	–
H-GthioHK-OH	completely reduce the DPPH and ABTS radicals	completely reduce the DPPH and ABTS radicals; also recorded: slightly higher TEAC value than the other 2-thioHis peptides	97.0 ± 0.3	0.95 ± 0.02	2.61 ± 0.01	highest RSA of all compounds tested; also recorded: nearly completely abolishing the signal	31.6	–
H-βAthioH-OH [thioHcarnosine]	–	–	43.5 ± 1.1	0.80 ± 0.01	2.25 ± 0.05	less than 2-thioHis	13	higher affinity for Cu(II) than carnosine
CC(C)C[C@H](NC(=O)[C@@H]1CCCN1C(=O)CNC(=O)[C@H](CC(C)C)NC(=O)[C@@H]1CCCN1C(=O)CNC(=O)[C@@H](N)Cc1c[nH]c(=S)[nH]1)C(=O)O [thioHGPLGPL, H-thioHGPLGPL-OH] (H-[X1]GPLGPL-OH)	–	–	59.7 ± 3.0	0.95 ± 0.01	2.14 ± 0.02	equivalent to 2-thioHis itself	12	–
Cc1c(C)c2c(c(C)c1O)CCC(C)(C(=O)O)O2 (centres unmarked) [Trolox, 6-hydroxy-2,5,7,8-tetramethylchromane-2-carboxylic acid, reference compound]	–	–	–	1.00	1.00	–	–	–
NC(Cc1c[nH]c(=S)[nH]1)C(=O)O [2-thioHis, L-2-thiohistidine]	same ability as Trolox	–	56.0 ± 2.1	1.00 ± 0.02	1.50 ± 0.03	–	7.5	–
HGPLGPL [H-HGPLGPL-OH, reference compound]	–	–	46.8 ± 1.3	–	–	–	–	–
N[C@@H](Cc1c[nH]cn1)C(=O)O [His, histidine]	–	–	48.5 ± 7.3	–	–	–	–	–
NCCC(=O)N[C@@H](Cc1cnc[nH]1)C(=O)O [Carnosine, H-βAH-OH, reference compound]	–	–	31.4 ± 4.2	–	–	not a good ·OH scavenger	–	–
